Assay [1] deals with T1, EBP (Mus musculus, UniProt P70245).
T1 construct: active EBP was obtained from mouse microsomes; from tissue
T1 sequence (P70245 1-230): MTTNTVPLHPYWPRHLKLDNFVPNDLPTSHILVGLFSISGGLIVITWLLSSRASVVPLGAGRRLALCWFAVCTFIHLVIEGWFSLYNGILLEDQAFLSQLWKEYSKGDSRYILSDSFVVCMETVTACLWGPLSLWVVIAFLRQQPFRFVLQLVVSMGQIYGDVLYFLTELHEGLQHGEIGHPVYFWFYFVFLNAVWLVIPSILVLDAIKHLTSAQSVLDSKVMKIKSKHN
The experiment in a line: EBP enzymatic assay. The assay is classed as biochemical. The note with it: 10 μM, FIG. 4a. How it is done:
EBP enzymatic activity was measured using a reported method with slight modifications: active EBP was obtained from mouse microsomes, inhibitors were added, zymostenol was added at a final concentration of 25 μM in a final reaction volume of 500 μl, and the reaction incubated at 37° C. for 2 h. Sterols were extracted using 3×1 ml hexanes, cholesterol-d7 was added to enable quantitation, and the pooled organics were dried (Na2SO4) and evaporated under nitrogen gas. Samples were then silylated and analyzed using GC/MS as described above.

The subject of assay [2] is oligodendrocyte progenitor cells (OPCs), OPC-5. The experiment in a line: Differentiation of OPCs to MBP+ oligodendrocytes (in vitro phenotypic screening, high-content imaging). The assay is classed as cell-based, mouse. How it is done: To rigorously assess effects of small molecule and genetic treatments on OPCs, all treatments were assayed in two batches of epiblast stem cell-derived OPCs, and key results were confirmed using mouse primary OPCs. OPCs were generated from two separate EpiSC lines, EpiSC5 (giving rise to OPC-5 OPCs) and 12901 (giving rise to OPC-1 OPCs). EpiSC-derived OPCs were obtained using in vitro differentiation protocols and culture conditions described previously. To ensure uniformity throughout all in vitro screening experiments, EpiSC-derived OPCs were sorted to purity by fluorescence activated cell sorting at passage five with conjugated CD 140a-APC (eBioscience, 17-1401; 1:80) and NG2-AF488 (Millipore, AB5320A4; 1:100) antibodies. Sorted batches of OPCs were expanded and frozen down in aliquots. OPCs were thawed into growth conditions for one passage before use in further assays. Cultures were regularly tested and shown to be mycoplasma free.
EpiSC-derived OPCs were grown and expanded in poly-ornithine (PO) and laminin-coated flasks with growth medium (DMEM/F12 supplemented with N2-MAX (R&D Systems), B-27 (ThermoFisher), GlutaMax (Gibco), FGF2 ([…], R&D systems, 233-FB-025) and PDGF-AA ([…], R&D systems, 233-AA-050) before harvesting for plating. The cells were seeded onto poly-D-lysine 96-well CellCarrier or CellCarrierUltra plates (PerkinElmer) coated with laminin (Sigma, L2020; 15 μg/ml) using multi-channel pipet. For the experiment, 800,000 cells/mL stock in differentiation medium (DMEM/F12 supplemented with N2-MAX and B-27) was prepared and stored on ice for 2 h. Then, 40,000 cells were seeded per well in differentiation medium and allowed to attach for 30 min before addition of drug. For dose-response testing of all molecules except sterols, a 1000× compound stock in dimethyl sulphoxide (DMSO) was added to assay plates with 0.1 μL solid pin multi-blot replicators (V & P Scientific; VP 409), resulting in a final primary screening concentration of 1×. Cells were incubated under standard conditions (37° C., 5% CO2) for 3 days and fixed with 4% paraformaldehyde (PFA) in phosphate buffered saline (PBS) for 20 min. Fixed plates were washed with PBS (200 μL per well) twice, permeabilized with 0.1% Triton X-100 and blocked with 10% donkey serum (v/v) in PBS for 40 min. Then, cells were labelled with MBP antibodies (Abcam, ab7349; 1:200) for 16 h at 4° C. followed by detection with Alexa Fluor conjugated secondary antibodies (1:500) for 45 min. Nuclei were visualized by DAPI staining (Sigma; 1 μg/ml). During washing steps, PBS was added using a multi-channel pipet and aspiration was performed using Biotek EL406 washer dispenser (Biotek) equipped with a 96-well aspiration manifold.
Plates were imaged on the Operetta High Content Imaging and Analysis system (PerkinElmer) and a set of 6 fields captured from each well resulting in an average of 1200 cells being scored per well. Analysis (PerkinElmer Harmony and Columbus software) began by identifying intact nuclei stained by DAPI; that is, those traced nuclei that were larger than 300 μm2 in surface area. Each traced nucleus region was then expanded by 50% and cross-referenced with the […] (MBP) stain to identify oligodendrocyte nuclei, and from this the percentage of oligodendrocytes was calculated.

The target of assay [3] is kappa opioid receptor (Homo sapiens, UniProt P41145). Kind of assay: k-Opioid receptor agonism assay (Tango  U2OS cells). The following applies: Compound 1 at 1 μM, TASIN-1 100 nM, U50488 2 μM. It counts as cell-based.
For assay [4], the target named is T2, M1 muscarinic receptor (Homo sapiens, UniProt P11229).
T2 sequence (P11229 1-460): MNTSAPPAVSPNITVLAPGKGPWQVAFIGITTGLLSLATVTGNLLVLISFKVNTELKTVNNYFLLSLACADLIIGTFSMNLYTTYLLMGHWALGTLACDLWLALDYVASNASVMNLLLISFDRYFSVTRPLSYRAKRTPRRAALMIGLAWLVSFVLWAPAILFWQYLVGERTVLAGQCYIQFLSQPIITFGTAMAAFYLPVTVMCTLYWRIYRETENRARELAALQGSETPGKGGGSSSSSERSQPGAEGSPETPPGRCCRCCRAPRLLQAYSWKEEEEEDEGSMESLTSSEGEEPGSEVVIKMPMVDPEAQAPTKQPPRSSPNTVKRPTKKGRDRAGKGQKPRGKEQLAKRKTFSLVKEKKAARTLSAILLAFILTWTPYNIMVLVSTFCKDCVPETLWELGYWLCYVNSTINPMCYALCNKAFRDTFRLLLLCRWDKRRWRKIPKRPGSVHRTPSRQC
Kind of assay: Muscarinic receptor antagonism assay (GeneBLAzer M1-NFAT-bla CHO-K1 cells). The assay is classed as cell-based. The following applies: Compound 1 at 1 μM, TASIN-1 100 nM; concentration maximally effective for oligodendrocyte formation.
Description: GeneBLAzer M1-NFAT-bla CHO-K1 cells (or M3- or M5-NFAT-bla CHO-K1 cells)(ThermoFisher) were thawed into Assay Media (DMEM, 10% dialyzed FBS, 25 mM HEPES pH 7.3, 0.1 mM NEAA). 10,000 cells/well were added to a 384-well TC treated assay plate and incubated 16-24 h at 37° C. 4 μl of a 10× stock of antimuscarinic molecules was added to the plate and incubated 30 min. 4 μl of 10× control agonist Carbachol at the pre-determined EC80 concentration was added to wells containing antimuscarinic molecules. The plate was incubated 5 h and 8 μl of 1 μM Substrate+Solution D Loading Solution was added to each well and the plate was incubated 2 h at room temperature before reading on a fluorescence plate reader.

Entries after “also recorded” stand apart in the source; their conditions may differ.

kappa opioid receptor, sequence (P41145 whole entry): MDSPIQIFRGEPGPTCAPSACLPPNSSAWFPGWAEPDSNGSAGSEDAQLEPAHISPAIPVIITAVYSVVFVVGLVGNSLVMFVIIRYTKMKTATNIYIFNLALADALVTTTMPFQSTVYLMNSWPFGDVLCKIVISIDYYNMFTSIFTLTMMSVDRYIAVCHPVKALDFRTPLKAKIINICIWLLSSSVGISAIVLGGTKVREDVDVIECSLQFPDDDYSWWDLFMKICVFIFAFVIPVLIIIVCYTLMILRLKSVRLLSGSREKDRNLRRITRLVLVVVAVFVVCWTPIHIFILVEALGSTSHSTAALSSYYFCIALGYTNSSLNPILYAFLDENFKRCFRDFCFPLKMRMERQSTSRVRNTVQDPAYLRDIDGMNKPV

As for `c1ccc(-c2ccc(CN3CCCCCCC3)cc2)cc1` [Compound 1], the “EBP inhibition in an in vitro enzymatic assay” value in assay [1] is “enhanced potency for EBP inhibition”. In addition, the activation at 0.03 µM in assay [2] (Mus musculus, Oligodendrocyte progenitor cell, 0.03 μM, 72 h treatment, read-out: % enhancement of MBP+ oligodendrocyte generation at 0.03 μM concentration) lay within 20 to 30%. Further, the activation at 0.1 µM in assay [2] (Mus musculus, Oligodendrocyte progenitor cell, 0.1 μM, 72 h treatment, read-out: % enhancement of MBP+ oligodendrocyte generation at 0.1 μM concentration) is over 40%. Besides, the activation at 0.3 µM in assay [2] (Mus musculus, Oligodendrocyte progenitor cell, 0.3 μM, 72 h treatment, read-out: % enhancement of MBP+ oligodendrocyte generation at 0.3 μM concentration) is over 40%. In assay [2] (Mus musculus, Oligodendrocyte progenitor cell, 1 μM, 72 h treatment, read-out: % enhancement of MBP+ oligodendrocyte generation at 1 μM concentration), the activation at 1 µM is over 40%. In assay [2] (OPC-5, FIGS. 2a-2c), the “enhancement of oligodendrocyte formation (in words)” value is on record as “near maximal effects observed at 110 nM; also recorded: near maximal effects on oligodendrocyte formation at 110 nM”. Also, in assay [3], the “effect in cell-based assay for the kappa opioid receptor” value is “little affinity”. In assay [4], the “effect in cell-based assay for the M1 muscarinic receptor” value is “little affinity”.

The values are drawn from patent publication US12048678B2, “Compounds for treating myelin related disorders” (Case Western Reserve University, priority 2018, dated 2024).
